pIC50: −log10 of the molar value. Counter-ions that a name gives are not always drawn. Bounds are passed on as bounds.

The source of these data is patent publication US20260347338A1, “PYRIMIDINE/PYRIDINE DERIVATIVES OR SALTS THEREOF AND PHARMACEUTICAL COMPOSITIONS COMPRISING THE SAME” (YUHAN CORPORATION, priority 2023, published 2026).

The test has as its target T1, human recombinant HPK1 (Homo sapiens, UniProt Q92918).
T1 construct: purchased BPS Bioscience
Kind of test: Inhibitory activity against human recombinant HPK1 (TR-FRET). Type of test: biochemical. The settings on record: ULight-p70S6K peptide, ATP at Km, room temperature, 1 hour, 0.32 to 1000 nM compound. As for the experimental part:
Test Example: Evaluation of Inhibitory Activity Against Human Recombinant HPK1
The inhibitory activity against human recombinant HPK1 was evaluated using the Time-Resolved Fluorescence Resonance Energy Transfer (TR-FRET) technology of Perkin-Elmer. The test compound was prepared as a 20 mM stock solution with dimethyl sulfoxide (DMSO), serially diluted in a buffer solution, and used at final compound concentrations of 0.32 to 1000 nM. The evaluation of inhibitory activity was carried out at room temperature, using recombinant human HPK1 (BPS Bioscience). Briefly, recombinant human HPK1, serially diluted each test compound, ULight-p70S6K peptide substrate (PerkinElmer), and ATP at each concentration (Km and final concentration) were added to a kinase buffer solution (50 mM HEPES pH 7.4, 10 mM MgCl2, 1 mM EGTA, 3 mM MnCl2, 2 mM DTT, and 0.01% Tween-20). The resulting mixture was added to each well of a 384-well plate (Optiplate™ 384, white, PerkinElmer). The enzyme reaction was carried out at room temperature for 1 hour. After the reaction was suspended by adding 4 μL of a stop solution (10 mM EDTA) thereto, the mixture was stirred for 1 minute and then a detection solution containing Europium-labeled anti-phosphopeptide antibody (final concentration: 2 nM, PerkinElmer) was added thereto. The signals of TR-FRET at excitation wavelength (320 nm) and emission wavelength (665 nm) were detected using a microplate reader (Envision Multilabel Reader, Perkin-Elmer). Inhibition by the test compound was measured as % inhibition in the signals, compared to the control group treated with DMSO only. The IC50 value of each compound was calculated using the GraphPad Prism program (GraphPad Software, Inc., San Diego, CA, USA). The IC50 values of test compounds for inhibitory activity against HPK1 were classified as follows: • A: IC50≤10 nM • B: 10 nM<IC50≤50 nM • C: 50 nM<IC50≤100 nM • D: IC50>100 nM

T1 sequence (Q92918 whole entry): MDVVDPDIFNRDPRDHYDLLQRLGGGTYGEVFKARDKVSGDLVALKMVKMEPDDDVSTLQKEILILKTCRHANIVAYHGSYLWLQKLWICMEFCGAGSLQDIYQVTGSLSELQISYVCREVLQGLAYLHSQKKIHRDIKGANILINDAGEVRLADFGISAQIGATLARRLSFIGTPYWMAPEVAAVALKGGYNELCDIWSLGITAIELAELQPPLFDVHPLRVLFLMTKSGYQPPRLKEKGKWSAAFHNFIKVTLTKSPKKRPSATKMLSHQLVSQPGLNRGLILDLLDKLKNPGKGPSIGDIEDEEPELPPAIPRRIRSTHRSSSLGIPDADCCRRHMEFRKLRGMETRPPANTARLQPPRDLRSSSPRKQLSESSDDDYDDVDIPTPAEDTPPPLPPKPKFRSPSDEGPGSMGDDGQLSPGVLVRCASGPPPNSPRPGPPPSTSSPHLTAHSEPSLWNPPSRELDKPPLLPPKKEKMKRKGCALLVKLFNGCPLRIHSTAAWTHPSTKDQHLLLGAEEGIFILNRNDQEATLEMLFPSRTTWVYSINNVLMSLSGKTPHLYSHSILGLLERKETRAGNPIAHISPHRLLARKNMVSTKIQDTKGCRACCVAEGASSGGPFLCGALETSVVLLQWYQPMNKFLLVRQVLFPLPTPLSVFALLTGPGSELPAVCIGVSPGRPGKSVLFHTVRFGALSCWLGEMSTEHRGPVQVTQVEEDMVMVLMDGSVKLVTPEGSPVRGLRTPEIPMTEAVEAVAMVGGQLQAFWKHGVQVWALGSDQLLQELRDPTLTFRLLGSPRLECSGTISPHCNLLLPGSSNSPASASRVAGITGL

For the compound `COc1cccc(F)c1-c1cccc(Nc2cc(N3CCC[C@H](O)C3)c(-c3cnn(C4CCOCC4)c3)cn2)n1` [Example 35, (S)-1-(2-((6-(2-fluoro-6-methoxyphenyl)pyridin-2-yl)amino)-5-(1-(tetrahydro-2H-pyran-4-yl)-1H-pyrazol-4-yl)pyridin-4-yl)piperidin-3-ol], the pIC50 was at least 8.00. To `COc1cccc(F)c1-c1nccc(Nc2cc(N3CCC[C@H](O)C3)c(-c3ccc(C(=O)N4CCN(C)CC4)nc3)cn2)n1` [Example 36, (S)-(6′-((2-(2-fluoro-6-methoxyphenyl)pyrimidin-4-yl)amino)-4′-(3-hydroxypiperidin-1-yl)-[3,3′-bipyridin]-6-yl)(4-methylpiperazin-1-yl)methanone] belongs at least 8.00; to `COc1cccc(F)c1-c1nccc(Nc2cc(N3CCC[C@H](O)C3)c(-c3ccc(C(=O)N4CCOCC4)nc3)cn2)n1` [Example 37, (S)-(6′-((2-(2-fluoro-6-methoxyphenyl)pyrimidin-4-yl)amino)-4′-(3-hydroxypiperidin-1-yl)-[3,3′-bipyridin]-6-yl)(morpholino)methanone], 7.30 to 8.00; to `COc1cccc(F)c1-c1nccc(Nc2cc(N3CCC[C@H](O)C3)c(-c3ccc(C(=O)N4CCC(O)CC4)nc3)cn2)n1` [Example 38, (S)-(6′-((2-(2-fluoro-6-methoxyphenyl)pyrimidin-4-yl)amino)-4′-(3-hydroxypiperidin-1-yl)-[3,3′-bipyridin]-6-yl)(4-hydroxypiperidin-1-yl)methanone], at least 8.00.

For `COc1cccc(F)c1-c1nccc(Nc2cc(N3CCC[C@H](O)C3)c(-c3ccc(CN4CC[C@H](F)C4)nc3)cn2)n1` [Example 39, (S)-1-(6-((2-(2-fluoro-6-methoxyphenyl)pyrimidin-4-yl)amino)-6′-(((S)-3-fluoropyrrolidin-1-yl)methyl)-[3,3′-bipyridin]-4-yl)piperidin-3-ol], the pIC50 is at least 8.00. With `COc1cccc(F)c1-c1nc(Nc2cc(N3CCC[C@H](O)C3)c(-c3cnn(C4CCOCC4)c3)cn2)ccc1F` [Example 40, (3S)-1-(2-((5-fluoro-6-(2-fluoro-6-methoxyphenyl)pyridin-2-yl)amino)-5-(1-(tetrahydro-2H-pyran-4-yl)-1H-pyrazol-4-yl)pyridin-4-yl)piperidin-3-ol], the negative logarithm of the IC50 (pIC50) is at least 8.00. The result for `COc1cccc(F)c1-c1nc(Nc2cc(N3CCC[C@H](O)C3)c(-c3cnn(C4CCOCC4)c3)cn2)ccc1[N+](=O)[O-]` [Example 41, (3S)-1-(2-((6-(2-fluoro-6-methoxyphenyl)-5-nitropyridin-2-yl)amino)-5-(1-(tetrahydro-2H-pyran-4-yl)-1H-pyrazol-4-yl)pyridin-4-yl)piperidin-3-ol] reads at least 8.00; that for `COc1cccc(F)c1-c1nccc(Nc2cc(N3CCC[C@H](O)C3)c(-c3cccnc3)cn2)n1` [Example 42, (S)-1-(6-((2-(2-fluoro-6-methoxyphenyl)pyrimidin-4-yl)amino)-[3,3′-bipyridin]-4-yl)piperidin-3-ol], 7.30 to 8.00; that for `COc1cccc(F)c1-c1nccc(Nc2cc(N3CCC[C@H](O)C3)c(-c3ccc(CN4CCC(O)C4)nc3)cn2)n1` (stereo partly drawn) [Example 43, (3S)-1-(6-((2-(2-fluoro-6-methoxyphenyl)pyrimidin-4-yl)amino)-6′-((3-hydroxypyrrolidin-1-yl)methyl)-[3,3′-bipyridin]-4-yl)piperidin-3-ol], at least 8.00. The result for `COc1cccc(F)c1-c1nccc(Nc2cc(N3CCC(N(C)C)C3)c(-c3cnn(C4CCOCC4)c3)cn2)n1` (centres unmarked) [Example 44, N-(4-(3-(dimethylamino)pyrrolidin-1-yl)-5-(1-(tetrahydro-2H-pyran-4-yl)-1H-pyrazol-4-yl)pyridin-2-yl)-2-(2-fluoro-6-methoxyphenyl)pyrimidin-4-amine] reads 7.30 to 8.00. To `COc1cccc(F)c1-c1nccc(Nc2cc(N3CCC(C)(CO)C3)c(-c3cnn(C4CCOCC4)c3)cn2)n1` (centres unmarked) [Example 45, (1-(2-((2-(2-fluoro-6-methoxyphenyl)pyrimidin-4-yl)amino)-5-(1-(tetrahydro-2H-pyran-4-yl)-1H-pyrazol-4-yl)pyridin-4-yl)-3-methylpyrrolidin-3-yl)methanol] belongs below 7.00; to `COc1cccc(F)c1-c1nccc(Nc2cc(N3CCC(F)(CN(C)C)CC3)c(-c3cnn(C4CCOCC4)c3)cn2)n1` [Example 46, N-(4-(4-((dimethylamino)methyl)-4-fluoropiperidin-1-yl)-5-(1-(tetrahydro-2H-pyran-4-yl)-1H-pyrazol-4-yl)pyridin-2-yl)-2-(2-fluoro-6-methoxyphenyl)pyrimidin-4-amine], at least 8.00; to `COc1cccc(F)c1-c1nccc(Nc2cc(N3CCC(CO)(CC(F)F)CC3)c(-c3cnn(C4CCOCC4)c3)cn2)n1` [Example 47, (4-(2,2-difluoroethyl)-1-(2-((2-(2-fluoro-6-methoxyphenyl)pyrimidin-4-yl)amino)-5-(1-(tetrahydro-2H-pyran-4-yl)-1H-pyrazol-4-yl)pyridin-4-yl)piperidin-4-yl)methanol], at least 8.00. As for `COc1cccc(F)c1-c1nccc(Nc2cc(N3CCC[C@H](O)C3)c(-c3ccc(CN4CCC(N(C)C)C4)nc3)cn2)n1` (stereo partly drawn) [Example 48, (3S)-1-(6′-((3-(dimethylamino)pyrrolidin-1-yl)methyl)-6-((2-(2-fluoro-6-methoxyphenyl)pyrimidin-4-yl)amino)-[3,3′-bipyridin]-4-yl)piperidin-3-ol], the pIC50 was at least 8.00.

For `COc1cccc(F)c1-c1nccc(Nc2cc(N3CCC[C@H](O)C3)c(-c3ccc(CN4CCCC(O)C4)nc3)cn2)n1` (stereo partly drawn) [Example 49, 1-((6′-((2-(2-fluoro-6-methoxyphenyl)pyrimidin-4-yl)amino)-4′-((S)-3-hydroxypiperidin-1-yl)-[3,3′-bipyridin]-6-yl)methyl)piperidin-3-ol], the pIC50 was below 7.00. With `COc1cccc(F)c1-c1nccc(Nc2cc(N3CCC[C@H](C(N)=O)C3)c(-c3cnn(C4CCOCC4)c3)cn2)n1` [Example 50, (S)-1-(2-((2-(2-fluoro-6-methoxyphenyl)pyrimidin-4-yl)amino)-5-(1-(tetrahydro-2H-pyran-4-yl)-1H-pyrazol-4-yl)pyridin-4-yl)piperidin-3-carboxamide], the pIC50 was below 7.00. On to `COc1cccc(F)c1-c1nccc(Nc2cc(N3CCC[C@@H](C(N)=O)C3)c(-c3cnn(C4CCOCC4)c3)cn2)n1` [Example 51, (R)-1-(2-((2-(2-fluoro-6-methoxyphenyl)pyrimidin-4-yl)amino)-5-(1-(tetrahydro-2H-pyran-4-yl)-1H-pyrazol-4-yl)pyridin-4-yl)piperidin-3-carboxamide], for which the pIC50 is 7.00 to 7.30.

For the compound `COc1cccc(F)c1-c1nccc(Nc2cc(N3CCC[C@H](N)C3)c(-c3cnn(C4CCOCC4)c3)cn2)n1` [Example 52, (S)-N-(4-(3-aminopiperidin-1-yl)-5-(1-(tetrahydro-2H-pyran-4-yl)-1H-pyrazol-4-yl)pyridin-2-yl)-2-(2-fluoro-6-methoxyphenyl)pyrimidin-4-amine hydrochloride], the negative-log IC50 (pIC50) is at least 8.00. To `COc1cccc(F)c1-c1nccc(Nc2cc(N3CCC[C@@H](N)C3)c(-c3cnn(C4CCOCC4)c3)cn2)n1` [Example 53, (R)-N-(4-(3-aminopiperidin-1-yl)-5-(1-(tetrahydro-2H-pyran-4-yl)-1H-pyrazol-4-yl)pyridin-2-yl)-2-(2-fluoro-6-methoxyphenyl)pyrimidin-4-amine] belongs at least 8.00; to `COc1cccc(F)c1-c1nc(Nc2cc(N3CCC[C@H](O)C3)c(-c3ccc(C(=O)N4CCC(O)CC4)nc3)cn2)ccc1[N+](=O)[O-]` [Example 54, (6′-((6-(2-fluoro-6-methoxyphenyl)-5-nitropyridin-2-yl)amino)-4′-((S)-3-hydroxypiperidin-1-yl)-[3,3′-bipyridin]-6-yl)(4-hydroxypiperidin-1-yl)methanone], 7.30 to 8.00; to `COc1cccc(F)c1-c1nccc(Nc2cc(N3CCC[C@H](O)C3)c(-c3ccc(CN4CCC(N)CC4)nc3)cn2)n1` [Example 55, (S)-1-(6′-((4-aminopiperidin-1-yl)methyl)-6-((2-(2-fluoro-6-methoxyphenyl)pyrimidin-4-yl)amino)-[3,3′-bipyridin]-4-yl)piperidin-3-ol hydrochloride], 7.30 to 8.00. The result for `COc1cccc(F)c1-c1nccc(Nc2cc(N3CCC[C@H](O)C3)c(-c3ccc(C(F)(F)F)nc3)cn2)n1` [Example 57, (S)-1-(6-((2-(2-fluoro-6-methoxyphenyl)pyrimidin-4-yl)amino)-6′-(trifluoromethyl)-[3,3′-bipyridin]-4-yl)piperidin-3-ol] reads 7.00 to 7.30; that for `COc1cccc(F)c1-c1nc(Nc2cc(N3CCC[C@H](O)C3)c(-c3cnn(C4CCOCC4)c3)cn2)ccc1C` [Example 58, (3S)-1-(2-((6-(2-fluoro-6-methoxyphenyl)-5-methylpyridin-2-yl)amino)-5-(1-(tetrahydro-2H-pyran-4-yl)-1H-pyrazol-4-yl)pyridin-4-yl)piperidin-3-ol], below 7.00.
